From ChEMBL document CHEMBL1201862, “PubChem BioAssay data set” (2004)
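Where inhibition never reached the appropriate level, the endpoint shown equals the highest concentration tested. Otherwise, values were interpolated linearly from a five-concentration, 48-hour dose response in 96-well plates. GI50 marks 50% less growth.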 The source made the active and inactive calls. Rule as the data show it: active = GI50 up to about 1.1 µM and inactive = higher.

Tests used:
Assay in all cases: DTP human tumour cell line panel, 48 h
SF-539 = test system: SF-539
KM12 = test system: KM12
HCC 2998 = test system: HCC 2998
786-0 = test system: 786-0
IGROV-1 = test system: IGROV-1
CCRF-CEM = test system: CCRF-CEM
OVCAR-3 = test system: OVCAR-3
M14 = test system: M14
SF-295 = test system: SF-295
SN12C = test system: SN12C
SK-MEL-2 = test system: SK-MEL-2
HT-29 = test system: HT-29
LOX IMVI = test system: LOX IMVI
A498 = test system: A498
U-251 = test system: U-251
SF-268 = test system: SF-268
SNB-75 = test system: SNB-75

| SMILES | GI50 (SF-539) | GI50 (KM12) | GI50 (HCC 2998) | GI50 (786-0) | GI50 (IGROV-1) | GI50 (CCRF-CEM) | GI50 (OVCAR-3) | GI50 (M14) | GI50 (SF-295) | GI50 (SN12C) | GI50 (SK-MEL-2) | GI50 (HT-29) | GI50 (LOX IMVI) | GI50 (A498) | GI50 (U-251) | GI50 (SF-268) | GI50 (SNB-75) |
| --- | --- | --- | --- | --- | --- | --- | --- | --- | --- | --- | --- | --- | --- | --- | --- | --- | --- |
| N#C/C(=C/c1cccc2ccccc12)C(=O)c1ccccc1 | 17.7 µM (inactive) | 20.9 µM (inactive) | 23.6 µM (inactive) | 16.3 µM (inactive) | 24.3 µM (inactive) | 16.6 µM (inactive) | 48.6 µM (inactive) | 16.9 µM (inactive) | 20 µM (inactive) | 33.2 µM (inactive) | 18.9 µM (inactive) | > 100 µM (inactive) | 19.5 µM (inactive) | 23.1 µM (inactive) | 19 µM (inactive) | – | – |
| CC(=O)c1ccc(NC(=O)C(=O)C(C(=O)/C=C/c2ccccc2)C2OC(=O)c3ccccc32)cc1 (configuration not stated) | > 100 µM (inactive) | > 100 µM (inactive) | > 100 µM (inactive) | > 100 µM (inactive) | > 100 µM (inactive) | 53.5 µM (inactive) | – | > 100 µM (inactive) | > 100 µM (inactive) | > 100 µM (inactive) | > 100 µM (inactive) | > 100 µM (inactive) | > 100 µM (inactive) | > 100 µM (inactive) | 83 µM (inactive) | > 100 µM (inactive) | > 100 µM (inactive) |
| Cc1ccc(NC(=O)CCc2n[nH]c(=S)o2)cc1 | > 100 µM (inactive) | > 100 µM (inactive) | > 100 µM (inactive) | > 100 µM (inactive) | > 100 µM (inactive) | 62.8 µM (inactive) | > 100 µM (inactive) | > 100 µM (inactive) | > 100 µM (inactive) | > 100 µM (inactive) | – | > 100 µM (inactive) | > 100 µM (inactive) | > 100 µM (inactive) | > 100 µM (inactive) | > 100 µM (inactive) | > 100 µM (inactive) |
| Cn1nc(-c2ccccc2)c(C(=O)/C=C/c2ccc(Cl)cc2)c(N2CCCC2)c1=O | 3.55 µM (inactive) | – | – | 3.13 µM (inactive) | 6.31 µM (inactive) | 2.46 µM (inactive) | – | 5.33 µM (inactive) | 0.632 µM (active) | 5.94 µM (inactive) | – | 2.21 µM (inactive) | 3.8 µM (inactive) | – | 4.27 µM (inactive) | 4.61 µM (inactive) | – |
| CC1=NN(C(=O)c2ccc(Cl)cc2)C(=O)/C1=C/c1c(O)cc(O)c2ccccc12 | > 100 µM (inactive) | > 100 µM (inactive) | > 100 µM (inactive) | > 100 µM (inactive) | > 100 µM (inactive) | > 100 µM (inactive) | > 100 µM (inactive) | > 100 µM (inactive) | > 100 µM (inactive) | > 100 µM (inactive) | > 100 µM (inactive) | > 100 µM (inactive) | > 100 µM (inactive) | > 100 µM (inactive) | > 100 µM (inactive) | > 100 µM (inactive) | – |
| O=C(c1ccccc1)N1C2C3CC(OCc4ccccc4)(OCc4ccccc4)C(O3)C21 (configuration not stated) | > 100 µM (inactive) | – | > 100 µM (inactive) | > 100 µM (inactive) | > 100 µM (inactive) | > 100 µM (inactive) | – | > 100 µM (inactive) | – | > 100 µM (inactive) | > 100 µM (inactive) | – | > 100 µM (inactive) | > 100 µM (inactive) | > 100 µM (inactive) | > 100 µM (inactive) | > 100 µM (inactive) |
| CC(C)(C)OC(=O)c1cccnc1/C=N/O | > 100 µM (inactive) | > 100 µM (inactive) | – | 67.6 µM (inactive) | > 100 µM (inactive) | 67.1 µM (inactive) | 53.1 µM (inactive) | > 100 µM (inactive) | 78.7 µM (inactive) | > 100 µM (inactive) | > 100 µM (inactive) | > 100 µM (inactive) | > 100 µM (inactive) | – | > 100 µM (inactive) | > 100 µM (inactive) | > 100 µM (inactive) |
| C=CN1C(=O)[C@H](Oc2ccccc2)[C@@H]1c1ccccc1 | 16.2 µM (inactive) | 33 µM (inactive) | 47.4 µM (inactive) | 18.9 µM (inactive) | > 100 µM (inactive) | 46.8 µM (inactive) | – | 33.1 µM (inactive) | 26.1 µM (inactive) | 32.7 µM (inactive) | 12.9 µM (inactive) | 22.7 µM (inactive) | – | 71.4 µM (inactive) | 36.4 µM (inactive) | 37.2 µM (inactive) | 15.6 µM (inactive) |
| CCOC(=O)NC(=O)c1cn(CCCOC(=O)NCCCCCCNC(=O)OCCCn2cc(C(=O)NC(=O)OCC)c(=O)[nH]c2=O)c(=O)[nH]c1=O | 18.5 µM (inactive) | – | 20 µM (inactive) | 20 µM (inactive) | 41.9 µM (inactive) | 5.4 µM (inactive) | 17.4 µM (inactive) | 20.4 µM (inactive) | 22.5 µM (inactive) | 47.6 µM (inactive) | – | 63.4 µM (inactive) | 43.1 µM (inactive) | 22.8 µM (inactive) | 18.1 µM (inactive) | – | 23.3 µM (inactive) |
| CN(C)CC/C(=N\Nc1ccc(Cl)cc1Cl)c1ccccc1 | 18.1 µM (inactive) | 16 µM (inactive) | – | 13.7 µM (inactive) | 10.1 µM (inactive) | 12.7 µM (inactive) | 14 µM (inactive) | 15.5 µM (inactive) | 18.5 µM (inactive) | 12.6 µM (inactive) | 14.5 µM (inactive) | 14.3 µM (inactive) | 14.8 µM (inactive) | 16.4 µM (inactive) | 12.4 µM (inactive) | – | 7.74 µM (inactive) |
| COc1cc2c(c(OC)c1OC)-c1ccc(SC)c(=O)cc1[C@@H](NC(=O)c1cccc([N+](=O)[O-])c1)CC2 | 0.0171 µM (active) | < 0.01 µM (active) | 0.0207 µM (active) | 0.0351 µM (active) | 0.0288 µM (active) | 0.0301 µM (active) | 0.0191 µM (active) | 0.0154 µM (active) | 0.0208 µM (active) | 0.0282 µM (active) | – | 0.0241 µM (active) | – | 0.0198 µM (active) | 0.0221 µM (active) | 0.0214 µM (active) | 0.0264 µM (active) |
| CC(=O)CC(=O)CCC(=O)Nc1cccc(C(F)(F)F)c1 | > 100 µM (inactive) | > 100 µM (inactive) | > 100 µM (inactive) | > 100 µM (inactive) | > 100 µM (inactive) | > 100 µM (inactive) | > 100 µM (inactive) | > 100 µM (inactive) | > 100 µM (inactive) | > 100 µM (inactive) | > 100 µM (inactive) | > 100 µM (inactive) | > 100 µM (inactive) | > 100 µM (inactive) | > 100 µM (inactive) | > 100 µM (inactive) | – |
| CCC(=O)c1c(NOC2OC(COC(C)=O)C(OC(C)=O)C(OC(C)=O)C2OC(C)=O)nc(OC)n(C)c1=O (configuration not stated) | 69.2 µM (inactive) | > 100 µM (inactive) | > 100 µM (inactive) | > 100 µM (inactive) | > 100 µM (inactive) | > 100 µM (inactive) | – | > 100 µM (inactive) | > 100 µM (inactive) | > 100 µM (inactive) | > 100 µM (inactive) | > 100 µM (inactive) | > 100 µM (inactive) | – | > 100 µM (inactive) | > 100 µM (inactive) | > 100 µM (inactive) |
